Series [1] addresses T1, human amylin receptor (amylin 3(a) receptor: human calcitonin receptor + RAMP-3) (Homo sapiens, UniProt O60896+P30988).
T1 construct: expressed in transfected cells; host or cells: BHK570
T1 sequence (P30988 25-474): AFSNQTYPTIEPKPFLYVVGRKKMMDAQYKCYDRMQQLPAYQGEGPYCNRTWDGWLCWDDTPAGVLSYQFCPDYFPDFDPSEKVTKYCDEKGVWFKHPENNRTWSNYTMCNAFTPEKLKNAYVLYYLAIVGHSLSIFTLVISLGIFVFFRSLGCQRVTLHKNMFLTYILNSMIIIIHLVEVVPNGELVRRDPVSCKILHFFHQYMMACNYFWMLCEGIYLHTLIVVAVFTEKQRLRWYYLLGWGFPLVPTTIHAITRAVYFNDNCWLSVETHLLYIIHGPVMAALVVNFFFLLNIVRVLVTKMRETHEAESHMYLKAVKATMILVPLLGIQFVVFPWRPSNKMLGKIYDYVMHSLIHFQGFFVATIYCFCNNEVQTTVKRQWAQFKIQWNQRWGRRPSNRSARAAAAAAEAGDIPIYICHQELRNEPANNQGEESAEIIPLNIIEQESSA
T1 sequence (O60896 24-148 partner): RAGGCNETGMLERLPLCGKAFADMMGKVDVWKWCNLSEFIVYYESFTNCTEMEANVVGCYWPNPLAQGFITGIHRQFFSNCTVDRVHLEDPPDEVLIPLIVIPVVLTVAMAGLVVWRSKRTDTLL
Nature of the series: Assay (II)a functional CRE-luciferase assay, human amylin receptor. In kind it is cell-based.

In series [2] the target is T2, human calcitonin receptor (Homo sapiens, UniProt P30988).
T2 construct: expressed in transfected cells; host or cells: BHK570
T2 sequence (P30988 25-474): T1 sequence (P30988 25-474)
Nature of the series: Assay (II)a functional CRE-luciferase assay, human calcitonin receptor. In kind it is cell-based.

A short description of series [3]: Assay (III) ThT fibrillation assay for physical stability. In kind it is physicochemical. In a few lines: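 Freshly prepared formulations, pH-adjusted, with 1 μM ThT; four or eight replicates incubated at 37 °C under 960 rpm orbital shaking. Fluorescence (ex 444/em 485 nm) read every 20 min; […]. Peptide concentration measured by RP-HPLC before and after the run.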

Series [4] can be described thus: Assay (IV) determination of solubility. Type of series: physicochemical. In a few lines:
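Polypeptide in water (~500 nmol/ml stock) was mixed 1:1 with 100 mM buffers from pH 3.0 to 8.0 (glycylglycine pH 3.0–5.0; bistrispropane pH 6.0–8.0). After 18 hours at room temperature, samples were centrifuged and the polypeptide remaining in solution was quantified by HPLC.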

Where [5] appears, read: Table 2, BHK amylin 3(a)-receptor/CRE-luc cells.
[6] abbreviates: Table 7, human calcitonin (CTa) receptor.
[7] abbreviates: bistrispropane buffer, pH 6, pH 6.0, read-out: Solubility pH 6.0.
Where [8] appears, read: bistrispropane buffer, pH 6.5, pH 6.5, read-out: Solubility pH 6.5.
Setting [9] is: bistrispropane buffer, pH 7, pH 7.0, read-out: Solubility pH 7.0.
Setting [10] is: bistrispropane buffer, pH 7.5, pH 7.5, read-out: Solubility pH 7.5.
[11] abbreviates: bistrispropane buffer, pH 8, pH 8.0, read-out: Solubility pH 8.0.
Setting [12] is: glycylglycine buffer, pH 3, pH 3.0, read-out: Solubility pH 3.0.
[13] abbreviates: glycylglycine buffer, pH 4, pH 4.0, 18 hours at room temperature, Table 2, read-out: Solubility pH 4.0.
The mark [14] stands for this setting: glycylglycine buffer, pH 4, pH 4.0, read-out: Solubility pH 4.0.
Where [15] appears, read: glycylglycine buffer, pH 5, pH 5.0, read-out: Solubility pH 5.0.

Converted amounts (≈) assume the structure as drawn. Where two headings read alike, the source gives them in different places. Starred links: 1 amine or outer side, 2 acyl side, 3 side chain; linkers in the order of their positions; H or OH if unused. Positions of bridges follow the written chain, without caps; N, C: chain ends. Residues, ends and D or L forms follow the SMILES beside them. *: point of attachment. C20 diacid = O=C(O)CCCCCCCCCCCCCCCCCCC(=O)*; γGlu = O=C(O)[C@H](CCC(=O)[*:2])N[*:1] Where only a bound is given, the exact number is not on record here.

Broadly, the EC50 is the concentration at which the effect is half-maximal. In general, solubility refers to the concentration that dissolves in the medium under given conditions. For the compound `CC[C@H](C)[C@H](NC(=O)[C@@H]1CCCN1C(=O)CNC(=O)[C@H](Cc1ccccc1)NC(=O)[C@H](CC(N)=O)NC(=O)[C@H](CC(N)=O)NC(=O)[C@H](CO)NC(=O)[C@H](CO)NC(=O)[C@H](Cc1c[nH]cn1)NC(=O)[C@H](Cc1c[nH]cn1)NC(=O)[C@H](CC(C)C)NC(=O)[C@H](Cc1ccccc1)NC(=O)[C@H](CCC(=O)O)NC(=O)[C@H](C)NC(=O)[C@H](CC(C)C)NC(=O)[C@H](CCCNC(=N)N)NC(=O)[C@H](CCC(N)=O)NC(=O)[C@@H](NC(=O)[C@H](C)NC(=O)[C@@H]1CSSC[C@H](NC(=O)[C@H](CCCCN)NC(=O)CC[C@H](NC(=O)CCCCCCCCCCCCCCCCCCC(=O)O)C(=O)O)C(=O)N[C@@H](CC(N)=O)C(=O)N[C@@H]([C@@H](C)O)C(=O)N[C@@H](C)C(=O)N[C@@H]([C@@H](C)O)C(=O)N1)[C@@H](C)O)C(=O)N[C@@H](CC(C)C)C(=O)N1CCC[C@H]1C(=O)N1CCC[C@H]1C(=O)N[C@H](C(=O)N[C@@H](CC(N)=O)C(=O)N[C@H](C(=O)NCC(=O)N[C@@H](Cc1c[nH]cn1)C(=O)N[C@@H](CC(N)=O)C(=O)N[C@H](C(=O)N[C@@H](Cc1ccc(O)cc1)C(N)=O)[C@@H](C)O)C(C)C)[C@@H](C)O` [Example 115, N-alpha-[(S)-4-Carboxy-4-(19-carboxynonadecanoylamino)butyryl]-[Glu14,His17,His34]-pramlintide] ({C20 diacid-γGlu}-KCNTATCATQRLAEFLHHSSNNFGPILPPTNVGHNTY-NH2; disulfide 2-7 (inferred); C-terminus assumed), the figures for the EC50 in series [1] (setting [5]) and in series [2] (setting [6]) were 0.129 nM and 0.115 nM, respectively. Moreover, the “ThT pH 4.0 lag time” value in series [3] (ThT fibrillation assay) is listed as greater than 45 h. The “ThT pH 4.0 lag time (h)” value in series [3] (ThT fibrillation assay) is greater than 45 h. Moreover, the solubility at 18 h in series [4] (setting [7]) is greater than 200 µM; in series [4] (setting [8]), 73 µM (≈ 329 µg/mL); in series [4] (setting [9]) it was 22 µM (≈ 99.1 µg/mL); in series [4] (setting [10]), 46 µM (≈ 207 µg/mL); in series [4] (setting [11]), 115 µM (≈ 518 µg/mL); in series [4] (setting [12]), greater than 200 µM. Moreover, the solubility at 18 h in series [4] (setting [13]), in series [4] (setting [14]) and in series [4] (setting [15]) was greater than 200 µM throughout.
Take `CC[C@H](C)[C@H](NC(=O)[C@@H]1CCCN1C(=O)CNC(=O)[C@H](Cc1ccccc1)NC(=O)[C@H](CO)NC(=O)[C@H](CO)NC(=O)[C@H](CO)NC(=O)[C@H](CO)NC(=O)[C@H](CCCNC(=N)N)NC(=O)[C@@H](NC(=O)[C@H](CC(C)C)NC(=O)[C@H](Cc1ccccc1)NC(=O)[C@H](CCC(=O)O)NC(=O)[C@H](C)NC(=O)[C@H](CC(C)C)NC(=O)[C@H](CCCNC(=N)N)NC(=O)[C@H](CCC(N)=O)NC(=O)[C@@H](NC(=O)[C@H](C)NC(=O)[C@@H]1CSSC[C@H](NC(=O)[C@H](CCCCN)NC(=O)CC[C@H](NC(=O)CCCCCCCCCCCCCCCCCCC(=O)O)C(=O)O)C(=O)N[C@@H](CC(N)=O)C(=O)N[C@@H]([C@@H](C)O)C(=O)N[C@@H](C)C(=O)N[C@@H]([C@@H](C)O)C(=O)N1)[C@@H](C)O)C(C)C)C(=O)N[C@@H](CC(C)C)C(=O)N[C@@H](CO)C(=O)N[C@@H](CO)C(=O)N[C@H](C(=O)N[C@@H](CC(=O)O)C(=O)N[C@H](C(=O)NCC(=O)N[C@@H](CO)C(=O)N[C@@H](CC(=O)O)C(=O)N[C@H](C(=O)N1CCC[C@H]1C(N)=O)[C@@H](C)O)C(C)C)[C@@H](C)O` [Example 170, N-alpha-[(S)-4-Carboxy-4-(19-carboxynonadecanoylamino)butyryl]-[Glu14,Arg18,Ser21,Ser22,Ser28,Ser29,Asp31,Asp35,Pro37]-pramlintide] ({C20 diacid-γGlu}-KCNTATCATQRLAEFLVRSSSSFGPILSSTDVGSDTP-NH2; disulfide 2-7 (inferred)): the EC50 in series [1] (setting [5]) is 0.09 nM; in series [2] (setting [6]), 0.076 nM. Further, the “ThT pH 4.0 lag time” value in series [3] (Table 8), in series [3] (Table 9) and in series [3] (ThT fibrillation assay) was greater than 45 h in each case. Further, the “ThT pH 4.0 lag time (h)” value in series [3] (ThT fibrillation assay) is listed as greater than 45 h. The solubility at 18 h in series [4] (setting [7]) is greater than 200 µM; in series [4] (setting [8]), greater than 200 µM; in series [4] (bistrispropane buffer, pH 7, pH 7.0, 18 hours at room temperature, Table 3, read-out: Solubility pH 7.0) it was greater than 200 µM; in series [4] (bistrispropane buffer, pH 7, pH 7.0, Table 8, read-out: Solubility pH 7.0), greater than 200 µM; in series [4] (bistrispropane buffer, pH 7, pH 7.0, Table 9, read-out: Solubility pH 7.0), greater than 200 µM; in series [4] (setting [9]) it was greater than 200 µM. The solubility at 18 h is greater than 200 µM in series [4] (bistrispropane buffer, pH 7.5, pH 7.5, Table 9, read-out: Solubility pH 7.5); greater than 200 µM in series [4] (setting [10]); 188 µM (≈ 808 µg/mL) in series [4] (setting [11]); greater than 200 µM in series [4] (setting [12]); greater than 200 µM in series [4] (setting [13]); greater than 200 µM in series [4] (setting [14]). The solubility at 18 h in series [4] (setting [15]) was 186 µM (≈ 800 µg/mL).
Take `CC[C@H](C)[C@H](NC(=O)[C@@H]1CCCN1C(=O)CNC(=O)[C@H](Cc1ccccc1)NC(=O)[C@H](CC(N)=O)NC(=O)[C@H](CC(N)=O)NC(=O)[C@H](CO)NC(=O)[C@H](CO)NC(=O)[C@H](Cc1c[nH]cn1)NC(=O)[C@@H](NC(=O)[C@H](CC(C)C)NC(=O)[C@H](Cc1ccccc1)NC(=O)[C@H](CC(N)=O)NC(=O)[C@H](C)NC(=O)[C@H](CC(C)C)NC(=O)[C@H](CCCNC(=N)N)NC(=O)[C@H](CCC(N)=O)NC(=O)[C@@H](NC(=O)[C@H](C)NC(=O)[C@@H]1CSSC[C@H](NC(=O)[C@H](CCCNC(=N)N)NC(=O)CNC(=O)CC[C@H](NC(=O)CCCCCCCCCCCCCCCCCCC(=O)O)C(=O)O)C(=O)N[C@@H](CC(N)=O)C(=O)N[C@@H]([C@@H](C)O)C(=O)N[C@@H](C)C(=O)N[C@@H]([C@@H](C)O)C(=O)N1)[C@@H](C)O)C(C)C)C(=O)N[C@@H](CC(C)C)C(=O)N1CCC[C@H]1C(=O)N1CCC[C@H]1C(=O)N[C@H](C(=O)N[C@@H](CC(N)=O)C(=O)N[C@H](C(=O)NCC(=O)N[C@@H](CO)C(=O)N[C@@H](Cc1c[nH]cn1)C(=O)N[C@H](C(=O)N[C@@H](Cc1ccc(O)cc1)C(N)=O)[C@@H](C)O)C(C)C)[C@@H](C)O` [Example 99, N-alpha-[(S)-4-Carboxy-4-(19-carboxynonadecanoylamino)butyryl]-Gly-[Arg1,His35]-pramlintide] ({C20 diacid-γGlu}-GRCNTATCATQRLANFLVHSSNNFGPILPPTNVGSHTY-NH2; disulfide 3-8 (inferred); C-terminus assumed): the EC50 in series [1] (Table 11) was 0.045 nM; in series [2] (Table 11, read-out: CTa receptor human EC50), 0.0875 nM. For the same compound, the “ThT pH 4.0 lag time (h)” value in series [3] (ThT fibrillation assay) is 1.7 h. Also, the solubility at 18 h is 2 µM (≈ 9.02 µg/mL) in series [4] (setting [7]); 1 µM (≈ 4.51 µg/mL) in series [4] (setting [8]); 1 µM (≈ 4.51 µg/mL) in series [4] (setting [9]); 1 µM (≈ 4.51 µg/mL) in series [4] (setting [10]); greater than 200 µM in series [4] (setting [12]); greater than 200 µM in series [4] (setting [14]). In addition, the solubility at 18 h in series [4] (setting [15]) is greater than 200 µM; in series [4] (pH 8.0, read-out: Solubility pH 8.0), 1 µM (≈ 4.51 µg/mL).
